Test results published in patent US8158586B2, “Inhibitors of protein kinases and uses thereof” (priority 2005, dated 2012).
Several values for one entry are separate records, joined by “and”; a condition that tells them apart may be missing. Equal entries are not always repeated. Marks after values point to notes of the source that are not given here. Positions of bridges follow the written chain, without caps; N, C: chain ends. Non-standard residues stand in square brackets, D forms with d. Residues, ends and D or L forms follow the SMILES beside them. Chains are numbered I, II in the order given. *: point of attachment. PNA(A) = NCCN(CC(=O)*)C(=O)Cn1cnc2c(N)ncnc21; Adenin9ylacetyl = Nc1ncnc2c1ncn2CC(=O)*; N(CH2CH2NHAc)Gly = CC(=O)NCCNCC(=O)O

Legend:
[1] = biological target: Akt/PKB (Homo sapiens, UniProt P31749); test: Luminescence Kinase Glo assay, Akt/PKB; assay type: biochemical; conditions: 150000.0
Protocol: The ability of the PKI compounds to inhibit PKA, CDK2, Akt/PKB, MAPKp38 and CK2a2 protein kinases was assessed using the Luminescence Kinase Glo® Kit (Promega V6711) according to the manufacturer's instructions. In brief the protocol was as follows:
All kinases were prepared in their respective 1× buffers. 20 μL of […] reaction buffer was added to each well. 10 μL of PKI compound and 10 μL of the test kinase solution were added followed by 10 μL of the Reaction Solution (containing activators, ATP and substrate). The reactions were incubated at 30° C. for 30 min and then 50 μL of Kinase-Glo® was added. Luminescence was measured after 10-15 min on a Galaxy reader.

[2] = tested on: LS180 colon cancer cells; test: Rhodamine influx and efflux in LS180 colon cancer cells; assay type: cell-based; conditions: doxorubicin exposed controls
Protocol: (§1) The amount of rhodamine influx and efflux following treatment of LS180 colon cancer cells and H-661 NSCLC cells with the PKI compounds was also investigated. The measurement of rhodamine efflux and influx is a common procedure that provides a quantitative estimation of the level of multidrug resistance due to typical MDR and non-P-gp MDR. Both exogenous treatment using 5 μg/mL of the PKI compounds provided at the same time as doxorubicin, and endogenous incorporation, in which a single dose of 5 mM was used with the standard pinocytic endocytosis protocol, were investigated.
(§2) The MDR-1 pump functions only as an efflux pump, however, it modulates the cell entry of rhodamine (that can diffuse through the membrane). Upon toxicant exposure, rhodamine accumulates in the cells. Ratios of rhodamine fluorescence in doxorubicin exposed versus untreated controls (CT) are lower if the pump is inhibited.

[3] = tested on: PKCα expression in H-661 NSCLC cells; test: Expression of PKCα in H-661 cells, flow cytometry; assay type: cell-based; conditions: H-661 control cells exposed to doxorubicin for 72 h
Protocol: (§3) The effect of compounds 1 to 10 on doxorubicin-induced expression of PKCα in LS180 colon cancer cells and H-661 NSCLC cells was investigated. Cells were exposed to doxorubicin (50 ng/mL) for 3 days prior to exogenous treatment with the PKI compounds at a concentration of 5 μM. Results were acquired by flow cytometry after labelling of the cells with the PKC-alpha #sc 208 antibody.
(§4) The protocol used for fixing the cells for flow cytometry is as follows. A minimum of 1.0×10^6 cells was used in each instance. Cells were trypsinized and spun down at 1,000/5 min at 4° C. All the medium was removed and the cells resuspended in 500 μl of 1×PBS, pH 7.1. The cell suspension was added into 5 mls of 1% paraformaldehyde/PBS on ice and fixed for 15 min on ice. Cells were then centrifuged at 1,000/5 min and resuspended in 10 mls of 1×PBS. Cells were centrifuged again at 1,000/5 min and resuspended in 2 mls of 70% ETOH and kept at −20° C. until needed (up to 1 week). At which time, 2 mls of 1×PBS containing 1% BSA/0.02% NaN3 was added to each tube and the cells were left on ice for 5 min to give the cells time to rehydrate. Cells were then centrifuged at 1,000/5 min and the ETOH/PBS mix removed. The cells were resuspended in 5 mls of 1×PBS and allowed to sit on ice for 5 min. […]

[4] = tested on: H-661 NSCLC cells; test: Rhodamine influx and efflux in H-661 NSCLC cells; assay type: cell-based; conditions: control cells exposed to doxorubicin
Protocol: as §1, §2

[5] = tested on: Pgp expression in LS180 colon cancer cells; test: Pgp expression in LS180 colon cancer cells, flow cytometry; assay type: cell-based; conditions: LS180 control cell population exposed to doxorubicin for 72 h
Protocol: as §4, with “removed.” for “removed. The cells were resuspended in 5 mls of 1×PBS and allowed to sit on ice for 5 min.”
(§5) In view of the key role of the Pgp170 and MRP-1 proteins in MDR, the effect of the PKI compounds on expression of these proteins in LS180 colon cancer cells and H-661 NSCLC cells was investigated. […] The number of cells individually analysed amounted to approximately 50,000 with a statistical error of about 0.08%.
(§6) The increase in the expression of P-gp and MRP-1 was assessed by comparing the % of cells expressing the protein in question in the presence and absence of doxorubicin (i.e. the ratio A/B in the Tables).

[6] = tested on: MRP-1 expression in H-661 NSCLC cells; test: MRP-1 expression in H-661 NSCLC cells, flow cytometry; assay type: cell-based; conditions: H-661 control cell population exposed to doxorubicin for 72 h
Protocol: as §4, with “removed.” for “removed. The cells were resuspended in 5 mls of 1×PBS and allowed to sit on ice for 5 min.”
as §5, §6

[7] = tested on: PKCα expression in LS180 colon cancer cells; test: Expression of PKCα in LS180 cells, flow cytometry; assay type: cell-based; conditions: LS180 control cells exposed to doxorubicin for 72 h
Protocol: as §3, §4

[8] = tested on: Pgp expression in H-661 NSCLC cells; test: Pgp expression in H-661 NSCLC cells, flow cytometry; assay type: cell-based; conditions: H-661 control cell population exposed to doxorubicin for 72 h
Protocol: as §4, with “removed.” for “removed. The cells were resuspended in 5 mls of 1×PBS and allowed to sit on ice for 5 min.”
as §5, §6

[9] = tested on: MRP-1 expression in LS180 colon cancer cells; test: MRP-1 expression in LS180 colon cancer cells, flow cytometry; assay type: cell-based; conditions: LS180 control cell population exposed to doxorubicin for 72 h
Protocol: as §4, with “removed.” for “removed. The cells were resuspended in 5 mls of 1×PBS and allowed to sit on ice for 5 min.”
as §5, §6

Chain of Akt/PKB (P31749 whole entry): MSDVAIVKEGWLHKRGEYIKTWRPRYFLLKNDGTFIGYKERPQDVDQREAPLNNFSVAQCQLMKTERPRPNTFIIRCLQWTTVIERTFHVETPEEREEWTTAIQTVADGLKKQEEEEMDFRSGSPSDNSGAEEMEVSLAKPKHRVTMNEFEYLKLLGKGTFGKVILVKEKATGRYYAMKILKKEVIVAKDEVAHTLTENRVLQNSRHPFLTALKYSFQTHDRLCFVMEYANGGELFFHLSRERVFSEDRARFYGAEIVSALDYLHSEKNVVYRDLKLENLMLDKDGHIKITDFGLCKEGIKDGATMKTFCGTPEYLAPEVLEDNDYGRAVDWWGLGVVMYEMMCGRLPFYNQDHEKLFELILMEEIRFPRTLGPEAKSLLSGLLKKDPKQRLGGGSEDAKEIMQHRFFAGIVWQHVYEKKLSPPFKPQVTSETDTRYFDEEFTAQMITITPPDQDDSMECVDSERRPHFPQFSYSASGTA

CC[C@H](C)[C@H](NC(=O)[C@H](CSSC[C@H](NC(=O)CNC(=O)CN(CCNC(C)=O)C(=O)Cn1cnc2c(N)ncnc21)C(=O)N[C@@H](CCCCN)C(=O)NCC(=O)N[C@@H](CCCCN)C(=O)N[C@@H](Cc1ccccc1)C(=O)N[C@@H](CCCCN)C(=O)N[C@@H](CCCNC(=N)N)C(N)=O)NC(=O)[C@H](Cc1c[nH]cn1)NC(C)=O)C(=O)NCC(=O)N[C@@H](CCCNC(=N)N)C(=O)N[C@@H](Cc1ccccc1)C(=O)N[C@@H](CCCCN)C(N)=O [Compound 1] (I: Adenin9ylacetyl-[N(CH2CH2NHAc)Gly]GCKGKFKR-NH2 / II: Ac-HCIGRFK-NH2; disulfide I:3-II:2; N-terminus and C-terminus assumed)
% Inhibition Akt/PKB [1]: −31* %

CC(=O)N[C@@H](CCCCN)C(=O)N[C@@H](Cc1ccccc1)C(=O)N[C@@H](CCCNC(=N)N)C(=O)N[C@@H](CCCNC(=N)N)C(=O)N[C@@H](CCCCNC(=O)CN(CCN)C(=O)Cn1cnc2c(N)ncnc21)C(=O)N[C@@H](CCCNC(=N)N)C(=O)NCC(=O)N[C@@H](CCCNC(=N)N)C(=O)N[C@@H](CCC(=O)O)C(=O)N[C@H](C(=O)N[C@@H](CC(=O)O)C(N)=O)C(C)C [Compound 5] (Ac-KFRRK(PNA(A))RGREVD-NH2)
% Inhibition Akt/PKB [1]: −6* %

CC(=O)N[C@@H](CCCCN)C(=O)N[C@@H](Cc1ccccc1)C(=O)N[C@@H](CCCNC(=N)N)C(=O)N[C@@H](CCCNC(=N)N)C(=O)N[C@@H](CCCCNC(=O)CN(CCN)C(=O)Cn1cnc2c(N)ncnc21)C(=O)N[C@@H](CC(C)C)C(=O)N[C@@H](CCCNC(=N)N)C(=O)N[C@@H](CC(C)C)C(=O)N[C@@H](CCC(=O)O)C(=O)N[C@H](C(=O)N[C@@H](CC(=O)O)C(N)=O)C(C)C [Compound 6] (Ac-KFRRK(PNA(A))LRLEVD-NH2)
% Inhibition Akt/PKB [1]: −10* %

CC(=O)N[C@@H](CCCCN)C(=O)N[C@@H](CC(C)C)C(=O)N[C@@H](CCCNC(=N)N)C(=O)N[C@@H](CCCNC(=N)N)C(=O)N[C@@H](C)C(=O)N[C@@H](CCCCNC(=O)CN(CCN)C(=O)Cn1cnc2c(N)ncnc21)C(=O)N[C@@H](CCCNC(=N)N)C(=O)N[C@@H](Cc1ccccc1)C(=O)N[C@@H](CC(C)C)C(=O)N[C@@H](CCC(=O)O)C(=O)N[C@H](C(=O)N[C@@H](CC(=O)O)C(N)=O)C(C)C [Compound 7] (Ac-KLRRAK(PNA(A))RFLEVD-NH2)
% Inhibition Akt/PKB [1]: −7* %

CC(=O)N[C@@H](CCCCN)C(=O)N[C@@H](CC(C)C)C(=O)N[C@@H](CCCNC(=N)N)C(=O)N[C@@H](CCCNC(=N)N)C(=O)N[C@@H](C)C(=O)N[C@@H](CCCCNC(=O)CN(CCN)C(=O)Cn1cnc2c(N)ncnc21)C(=O)N[C@@H](CC(C)C)C(=O)NCC(=O)N[C@@H](CC(C)C)C(=O)NCC(=O)N[C@@H](CC(=O)O)C(=O)N[C@@H](CC(=O)O)C(N)=O [Compound 8] (Ac-KLRRAK(PNA(A))LGLGDD-NH2)
% Inhibition Akt/PKB [1]: 0%

CC(=O)N[C@@H](CCCCN)C(=O)N[C@@H](CC(C)C)C(=O)N[C@@H](CCCCN)C(=O)N[C@@H](CCCCN)C(=O)N[C@@H](C)C(=O)N[C@@H](CCCCNC(=O)CN(CCN)C(=O)Cn1cnc2c(N)ncnc21)C(=O)N[C@@H](CC(C)C)C(=O)NCC(=O)N[C@@H](CC(C)C)C(N)=O [Compound 9] (Ac-KLKKAK(PNA(A))LGL-NH2; N-terminus and C-terminus assumed)
% Inhibition Akt/PKB [1]: 7%

CC(=O)NCCN(CC(=O)NCC(=O)N[C@@H](CS)C(=O)N[C@@H](CCCCN)C(=O)NCC(=O)N[C@@H](CCCCN)C(=O)N[C@@H](Cc1ccccc1)C(=O)N[C@@H](CCCCN)C(=O)N[C@@H](CCCNC(=N)N)C(N)=O)C(=O)Cn1cnc2c(N)ncnc21 [Compound 10] (Adenin9ylacetyl-[N(CH2CH2NHAc)Gly]GCKGKFKR-NH2; N-terminus and C-terminus assumed)
% Inhibition Akt/PKB [1]: 21%

COc1cccc2c1C(=O)c1c(O)c3c(c(O)c1C2=O)C[C@@](O)(C(=O)CO)C[C@@H]3O[C@H]1C[C@H](N)[C@H](O)[C@H](C)O1 [doxorubicin]
rhodamine accumulation [2]: 1.58 times and 1.43 times and 1.37 times | increase in log fluorescence relative intensity (PKCα), average [3]: 2.19 times | increase in rhodamine retention [4]: ~2.00 times | increase in number of P-gp labelled cells, average [5]: 2.38 times | increase in number of MRP-1 labelled cells, average [6]: 12.05 times | increase in log fluorescence relative intensity (PKCα), average [7]: 1.99 times | increase in number of P-gp labelled cells, average [8]: 15.0 times | increase in number of MRP-1 labelled cells, average [9]: 3.41 times
